Measured values from the NIST ThermoML archive (doi:10.1021/acs.jced.8b00554).
± gives the expanded uncertainty stated by the source.

Conditions: Liquid, Vibrating tube method

CCCCCCCCC [nonane]
Conditions | mass density [kg/m3]
313.15 K, 100 kPa | 701.49 ± 4.2
313.15 K, 1050 kPa | 702.34 ± 4.2
313.15 K, 2030 kPa | 703.25 ± 4.2
313.15 K, 3030 kPa | 704.17 ± 4.2
313.15 K, 4040 kPa | 705.07 ± 4.2
313.15 K, 5050 kPa | 705.96 ± 4.2
313.15 K, 5980 kPa | 706.78 ± 4.2
313.15 K, 7050 kPa | 707.7 ± 4.2
313.15 K, 8060 kPa | 708.56 ± 4.3
313.15 K, 9060 kPa | 709.4 ± 4.3
313.15 K, 10070 kPa | 710.23 ± 4.3
313.15 K, 11050 kPa | 710.92 ± 4.3
313.15 K, 12030 kPa | 711.71 ± 4.3
313.15 K, 13030 kPa | 712.51 ± 4.3
313.15 K, 14040 kPa | 713.3 ± 4.3
313.15 K, 15050 kPa | 714.09 ± 4.3
313.15 K, 15980 kPa | 714.8 ± 4.3
313.15 K, 17050 kPa | 715.61 ± 4.3
313.15 K, 18060 kPa | 716.36 ± 4.3
313.15 K, 19060 kPa | 717.1 ± 4.3
313.15 K, 20070 kPa | 717.83 ± 4.3
323.15 K, 100 kPa | 693.34 ± 4.2
323.15 K, 1030 kPa | 694.03 ± 4.2
323.15 K, 2040 kPa | 695.02 ± 4.2
323.15 K, 3030 kPa | 695.98 ± 4.2
323.15 K, 4040 kPa | 696.94 ± 4.2
323.15 K, 5040 kPa | 697.88 ± 4.2
323.15 K, 6040 kPa | 698.81 ± 4.2
323.15 K, 7050 kPa | 699.74 ± 4.2
323.15 K, 8060 kPa | 700.65 ± 4.2
323.15 K, 9060 kPa | 701.55 ± 4.2
323.15 K, 10060 kPa | 702.43 ± 4.2
323.15 K, 11030 kPa | 703.16 ± 4.2
323.15 K, 12040 kPa | 704.02 ± 4.2
323.15 K, 13030 kPa | 704.87 ± 4.2
323.15 K, 14040 kPa | 705.71 ± 4.2
323.15 K, 15040 kPa | 706.54 ± 4.2
323.15 K, 16040 kPa | 707.35 ± 4.2
323.15 K, 17050 kPa | 708.16 ± 4.3
323.15 K, 18060 kPa | 708.96 ± 4.3
323.15 K, 19060 kPa | 709.74 ± 4.3
323.15 K, 20060 kPa | 710.52 ± 4.3
333.15 K, 100 kPa | 685.03 ± 4.1
333.15 K, 1030 kPa | 685.98 ± 4.1
333.15 K, 2020 kPa | 687 ± 4.1
333.15 K, 3020 kPa | 688.03 ± 4.1
333.15 K, 4020 kPa | 689.05 ± 4.1
333.15 K, 5030 kPa | 690.05 ± 4.2
333.15 K, 6030 kPa | 691.03 ± 4.2
333.15 K, 7030 kPa | 692 ± 4.2
333.15 K, 8040 kPa | 692.97 ± 4.2
333.15 K, 9040 kPa | 693.91 ± 4.2
333.15 K, 10050 kPa | 694.85 ± 4.2
333.15 K, 11030 kPa | 695.64 ± 4.2
333.15 K, 12020 kPa | 696.54 ± 4.2
333.15 K, 13020 kPa | 697.44 ± 4.2
333.15 K, 14020 kPa | 698.32 ± 4.2
333.15 K, 15030 kPa | 699.2 ± 4.2
333.15 K, 16030 kPa | 700.06 ± 4.2
333.15 K, 17030 kPa | 700.91 ± 4.2
333.15 K, 18040 kPa | 701.76 ± 4.2
333.15 K, 19040 kPa | 702.59 ± 4.2
333.15 K, 20050 kPa | 703.42 ± 4.2
343.15 K, 100 kPa | 677.18 ± 4.1
343.15 K, 1000 kPa | 678.15 ± 4.1
343.15 K, 2010 kPa | 679.25 ± 4.1
343.15 K, 3010 kPa | 680.33 ± 4.1
343.15 K, 4020 kPa | 681.41 ± 4.1
343.15 K, 5030 kPa | 682.46 ± 4.1
343.15 K, 6030 kPa | 683.5 ± 4.1
343.15 K, 7040 kPa | 684.52 ± 4.1
343.15 K, 8040 kPa | 685.53 ± 4.1
343.15 K, 9050 kPa | 686.53 ± 4.1
343.15 K, 10050 kPa | 687.51 ± 4.1
343.15 K, 11000 kPa | 688.33 ± 4.1
343.15 K, 12010 kPa | 689.29 ± 4.1
343.15 K, 13010 kPa | 690.24 ± 4.2
343.15 K, 14020 kPa | 691.18 ± 4.2
343.15 K, 15030 kPa | 692.1 ± 4.2
343.15 K, 16030 kPa | 693.01 ± 4.2
343.15 K, 17040 kPa | 693.91 ± 4.2
343.15 K, 18040 kPa | 694.8 ± 4.2
343.15 K, 19050 kPa | 695.68 ± 4.2
343.15 K, 20050 kPa | 696.54 ± 4.2
353.15 K, 100 kPa | 669.55 ± 4
353.15 K, 1000 kPa | 670.57 ± 4
353.15 K, 2000 kPa | 671.72 ± 4
353.15 K, 3010 kPa | 672.85 ± 4
353.15 K, 4010 kPa | 673.98 ± 4
353.15 K, 5020 kPa | 675.08 ± 4.1
353.15 K, 6020 kPa | 676.17 ± 4.1
353.15 K, 7020 kPa | 677.25 ± 4.1
353.15 K, 8030 kPa | 678.31 ± 4.1
353.15 K, 9030 kPa | 679.35 ± 4.1
353.15 K, 10040 kPa | 680.39 ± 4.1
353.15 K, 11000 kPa | 681.26 ± 4.1
353.15 K, 12000 kPa | 682.26 ± 4.1
353.15 K, 13010 kPa | 683.26 ± 4.1
353.15 K, 14010 kPa | 684.23 ± 4.1
353.15 K, 15020 kPa | 685.21 ± 4.1
353.15 K, 16020 kPa | 686.16 ± 4.1
353.15 K, 17020 kPa | 687.1 ± 4.1
353.15 K, 18030 kPa | 688.03 ± 4.1
353.15 K, 19030 kPa | 688.95 ± 4.2
353.15 K, 20040 kPa | 689.86 ± 4.2
363.15 K, 100 kPa | 662.05 ± 4
363.15 K, 990 kPa | 663.2 ± 4
363.15 K, 2000 kPa | 664.41 ± 4
363.15 K, 3010 kPa | 665.6 ± 4
363.15 K, 4010 kPa | 666.77 ± 4
363.15 K, 5020 kPa | 667.93 ± 4
363.15 K, 6020 kPa | 669.07 ± 4
363.15 K, 7030 kPa | 670.19 ± 4
363.15 K, 8030 kPa | 671.3 ± 4
363.15 K, 9040 kPa | 672.4 ± 4
363.15 K, 10040 kPa | 673.47 ± 4
363.15 K, 10990 kPa | 674.38 ± 4.1
363.15 K, 12000 kPa | 675.44 ± 4.1
363.15 K, 13010 kPa | 676.48 ± 4.1
363.15 K, 14010 kPa | 677.5 ± 4.1
363.15 K, 15020 kPa | 678.52 ± 4.1
363.15 K, 16020 kPa | 679.51 ± 4.1
363.15 K, 17030 kPa | 680.5 ± 4.1
363.15 K, 18030 kPa | 681.47 ± 4.1
363.15 K, 19040 kPa | 682.43 ± 4.1
363.15 K, 20040 kPa | 683.38 ± 4.1
